Counter-ions that a name gives are not always drawn.
How the values were obtained:
[1] = Single oral dose pharmacokinetics study in rats (10 mg/kg PO; plasma levels of prodrug and of metabolite DMT or 5-MeO-DMT by LC-MS/MS); conditions: for Mean Plasma Concentration (ng/mL) of metabolite DMT: analyte DMT after oral dosing of prodrug 10 mg/Kg; for Mean Plasma Concentrations of metabolite DMT: prodrug 10 mg/Kg oral, male SD rats
[2] = Single intravenous dose pharmacokinetics study in rats (1 mg/kg IV; plasma levels of prodrug and of DMT or 5-MeO-DMT by LC-MS/MS); conditions: IV 1 mg/kg, plasma, analyte = dosed compound
[3] = male, Sprague-Dawley, rat, plasma, po, 10 mg/kg, AUC0-last (h*ng/mL), oral 10 mg/Kg, analyte = dosed prodrug, mean
[4] = male, Sprague-Dawley, rat, plasma, po, 10 mg/kg, Cmax (ng/mL), oral 10 mg/Kg, analyte = dosed prodrug, mean
[5] = oral 10 mg/Kg, analyte = dosed prodrug, median
[6] = oral 10 mg/Kg, analyte = dosed prodrug, mean
[7] = PO 10 mg/kg, plasma, analyte = dosed compound

CN(C)CCc1cn(C(=O)N2CCC(N3CCCCC3)CC2)c2ccccc12 [DMT 4-Piperidinopiperidine urea formate, [1,4′-Bipiperidin]-1′-yl(3-(2-(dimethylamino)ethyl)-1H-indol-1-yl)methanone]
Mean Plasma Concentration (ng/mL) of metabolite DMT ([1]; 0.50 h): BLQ (BLQ: Below Lower Limit of Quantification (0.5 ng/mL))
Mean Plasma Concentration (ng/mL) of metabolite DMT ([1]; 1.00 h): BLQ (BLQ: Below Lower Limit of Quantification (0.5 ng/mL))
Mean Plasma Concentration (ng/mL) of metabolite DMT ([1]; 2.00 h): BLQ (BLQ: Below Lower Limit of Quantification (0.5 ng/mL))
Mean Plasma Concentration (ng/mL) of metabolite DMT ([1]; 4.00 h): BLQ (BLQ: Below Lower Limit of Quantification (0.5 ng/mL))
Mean Plasma Concentration (ng/mL) of metabolite DMT ([1]; 7.00 h): BLQ (BLQ: Below Lower Limit of Quantification (0.5 ng/mL))
Mean Plasma Concentration (ng/mL) of metabolite DMT ([1]; 24.0 h): BLQ (BLQ: Below Lower Limit of Quantification (0.5 ng/mL))

CN(C)CCc1cn(C(=O)c2ccccc2)c2ccccc12 [DMT Benzamide]
AUC(0-t) [1, 3]: 66.5 ng·h/mL
Cmax [1, 4]: 17.7 ng/mL
tlast [1, 5]: 7.00 h

COc1ccc2c(c1)c(CCN(C)C)cn2C(C)=O [5-MeO-DMT AP-1, 1-[3-[2-(dimethylamino)ethyl]-5-methoxy-indol-1-yl]ethanone]
AUC0-last [1, 6]: 180 ng·h/mL
Cmax [1, 6]: 69 ng/mL
T½ [1, 6]: 74.4 min
Tmax [1, 5]: 30 min
tlast [1, 5]: 7.00 h

CC(C)COC(=O)n1cc(CCN(C)C)c2ccccc21 [DMT CP-5, isobutyl 3-[2-(dimethylamino)ethyl]indole-1-carboxylate]
AUC(0-t) [1, 3]: 8.63 ng·h/mL
Cmax [1, 4]: 2.92 ng/mL
tlast [1, 5]: 4.00 h

CN(C)CCc1cn(C(=O)CC(C)(C)C(=O)O)c2ccccc12 [DMT-3,3-dimethylsuccinate hydrochloride, 4-(3-(2-(dimethylamino)ethyl)-1H-indol-1-yl)-2,2-dimethyl-4-oxobutanoic acid HCl salt]
Mean Plasma Concentrations of metabolite DMT ([1]; time 0.50 h): BLQ (BLQ: Below Lower Limit of Quantification (0.5 ng/mL))
Mean Plasma Concentrations of metabolite DMT ([1]; time 1.00 h): BLQ (BLQ: Below Lower Limit of Quantification (0.5 ng/mL))
Mean Plasma Concentrations of metabolite DMT ([1]; time 2.00 h): BLQ (BLQ: Below Lower Limit of Quantification (0.5 ng/mL))
Mean Plasma Concentrations of metabolite DMT ([1]; time 4.00 h): BLQ (BLQ: Below Lower Limit of Quantification (0.5 ng/mL))
Mean Plasma Concentrations of metabolite DMT ([1]; time 7.00 h): BLQ (BLQ: Below Lower Limit of Quantification (0.5 ng/mL))
Mean Plasma Concentrations of metabolite DMT ([1]; time 24.0 h): BLQ (BLQ: Below Lower Limit of Quantification (0.5 ng/mL))

CCCOC(=O)n1cc(CCN(C)C)c2cc(OC)ccc21 [5-MeO-DMT CP-4, propyl 3-[2-(dimethylamino)ethyl]-5-methoxy-indole-1-carboxylate]
AUC(0-t) [1, 3]: 6.45 ng·h/mL
Cmax [1, 4]: 4.85 ng/mL
tlast [1, 5]: 3.00 h

COc1ccc2[nH]cc(CCN(C)C)c2c1 [Compound 5-MeO-DMT, 5-methoxy-N,N-dimethyltryptamine, reference compound]
Clast [1, 7]: 1.95 ng/mL
tlast [1, 7]: 2.00 h
Cmax ([1]; male, Sprague-Dawley, rat, plasma, po, 10 mg/kg, C0/Cmax (nM), PO 10 mg/kg, analyte = dosed compound): 13.9 nM
Cmax ([1]; male, Sprague-Dawley, rat, plasma, po, 10 mg/kg, C0/Cmax (ng/mL), PO 10 mg/kg, analyte = dosed compound, mean/median): 3.03 ng/mL
AUC % Back Extrapolation to C0 [2]: 26.8%
AUC % Extrapolation to infinity [2]: 0.204%
Clast [2]: 1.68 ng/mL
tlast [2]: 5.50 h
AUC(0-t) ([2]; male, Sprague-Dawley, rat, iv, 1 mg/kg, AUC0-t (nM.hr)): 4.95 µM·h
AUC(0-t) ([2]; male, Sprague-Dawley, rat, iv, 1 mg/kg, AUC0-t (ng.hr/mL)): 1080 ng·h/mL
AUC(0-inf) ([2]; male, Sprague-Dawley, rat, iv, 1 mg/kg, AUCinf (nM.hr)): 4.95 µM·h
AUC(0-inf) ([2]; male, Sprague-Dawley, rat, iv, 1 mg/kg, AUCinf (ng.hr/mL)): 1080 ng·h/mL
clearance ([2]; male, Sprague-Dawley, rat, iv, 1 mg/kg, CL/CL_F (mL/min/kg)): 24.6 mL/min/kg
MRT ([2]; male, Sprague-Dawley, rat, iv, 1 mg/kg, MRT (h)): 37.4 min
Vd ([2]; male, Sprague-Dawley, rat, iv, 1 mg/kg, Vdss (L/kg)): 0.818 L/kg
half-life ([2]; male, Sprague-Dawley, rat, iv, 1 mg/kg, t1/2 (h)): 30.6 min

CN(C)CCc1cn(C(=O)N(C)C)c2ccccc12 [DMT N,N-dimethyl urea formate, 3-[2-(dimethylamino)ethyl]-N,N-dimethyl-indole-1-carboxamide]
Mean Plasma Concentrations of metabolite DMT ([1]; time 0.50 h): BLQ (BLQ: Below Lower Limit of Quantification (0.5 ng/mL))
Mean Plasma Concentrations of metabolite DMT ([1]; time 1.00 h): BLQ (BLQ: Below Lower Limit of Quantification (0.5 ng/mL))
Mean Plasma Concentrations of metabolite DMT ([1]; time 2.00 h): BLQ (BLQ: Below Lower Limit of Quantification (0.5 ng/mL))
Mean Plasma Concentrations of metabolite DMT ([1]; time 4.00 h): BLQ (BLQ: Below Lower Limit of Quantification (0.5 ng/mL))
Mean Plasma Concentrations of metabolite DMT ([1]; time 7.00 h): BLQ (BLQ: Below Lower Limit of Quantification (0.5 ng/mL))
Mean Plasma Concentrations of metabolite DMT ([1]; time 24.0 h): BLQ (BLQ: Below Lower Limit of Quantification (0.5 ng/mL))

COc1ccc2c(c1)c(CCN(C)C)cn2C(=O)CCCC(=O)O [5-MeO-DMT Non-Lipid Prodrug 6, 5-(3-(2-(dimethylamino)ethyl)-5-methoxy-1H-indol-1-yl)-5-oxopentanoic acid]
AUC(0-t) [1, 3]: 362 ng·h/mL
Cmax [1, 4]: 106 ng/mL
tlast [1, 5]: 7.00 h

CC(=O)n1cc(CCN(C)C)c2ccccc21 [DMT AP-1, 1-[3-[2-(dimethylamino)ethyl]indol-1-yl]ethenone]
AUC(0-t) [1, 3]: 2.16 ng·h/mL
Cmax [1, 4]: 3.53 ng/mL
tlast [1, 5]: 1.00 h

CN(C)CCc1cn(C(=O)OC(C)(C)C)c2ccccc12 [DMT CP-3, tert-butyl 3-[2-(dimethylamino)ethyl]indole-1-carboxylate]
AUC(0-t) [1, 3]: 13.8 ng·h/mL
Cmax [1, 4]: 11.1 ng/mL
tlast [1, 5]: 4.00 h

COc1ccc2c(c1)c(CCN(C)C)cn2C(=O)CCC(=O)O [5-MeO-DMT Non-Lipid Prodrug 5, 4-(3-(2-(dimethylamino)ethyl)-5-methoxy-1H-indol-1-yl)-4-oxobutanoic acid]
AUC(0-t) [1, 3]: 85.7 ng·h/mL
Cmax [1, 4]: 23 ng/mL
tlast [1, 5]: 7.00 h

COc1ccc2c(c1)c(CCN(C)C)cn2C(=O)OC(C)C [5-MeO-DMT CP-2, isopropyl 3-[2-(dimethylamino)ethyl]-5-methoxy-indole-1-carboxylate]
AUC(0-t) [1, 3]: 6.8 ng·h/mL
Cmax [1, 4]: 5.7 ng/mL
tlast [1, 5]: 2.50 h

CC(C)OC(=O)n1cc(CCN(C)C)c2ccccc21 [DMT CP-2, isopropyl 3-[2-(dimethylamino)ethyl]indole-1-carboxylate]
AUC(0-t) ([1]; male, Sprague-Dawley, rat, plasma, po, 10 mg/kg, AUC0-24 (h*ng/mL), oral 10 mg/Kg, analyte = dosed prodrug, mean): 60.9 ng·h/mL
AUC(0-t) [1, 3]: 39.4 ng·h/mL
Cmax [1, 4]: 17.4 ng/mL
tlast [1, 5]: 4.00 h

CCCOC(=O)n1cc(CCN(C)C)c2ccccc21 [DMT CP-4, propyl 3-[2-(dimethylamino)ethyl]indole-1-carboxylate]
AUC(0-t) [1, 3]: 28.2 ng·h/mL
Cmax [1, 4]: 14.3 ng/mL
tlast [1, 5]: 4.50 h

COc1ccc2c(c1)c(CCN(C)C)cn2C(=O)OC(C)(C)C [5-MeO-DMT CP-3, tert-butyl 3-[2-(dimethylamino)ethyl]-5-methoxy-indole-1-carboxylate]
AUC(0-t) [1, 3]: 17.3 ng·h/mL
Cmax [1, 4]: 7.51 ng/mL
tlast [1, 5]: 4.00 h
